According to the supplement of paper PMC10307832:

What was measured:
Assay in all cases: relative viability (nuclei count vs DMSO), 5 days (fraction); higher = more cells survive
[1] = compound: Nc1ccccc1NC(=O)c1ccc(CNC(=O)OCc2cccnc2)cc1 [Entinostat] + Nc1ncn([C@H]2C[C@H](O)[C@@H](CO)O2)c(=O)n1 [Decitabine] (partner 2 µM)
In short: (§1)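 Nuclei were stained with Hoechst during a one-step fixation (final 0.05% Triton X-100, 1% formaldehyde, 1 ug/ml Hoechst) carried out 5 days after dosing, then counted on 4× images. The cells, lung cancer lines in 1536-well plates, had been dosed by pin tool the day after seeding with one drug alone or a fixed anchor-drug dose plus five library-drug doses (not always all listed) in √10 steps. Relative viability is the nuclei count in treated wells divided by that in vehicle wells, and each value is the median of duplicate plates.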

[2] = compound: CN1CCC(CNc2ccc3ncc(-c4cccc(OC(F)(F)F)c4)n3n2)CC1 [SGI-1776] + O=C(c1cc(Cc2n[nH]c(=O)c3ccccc23)ccc1F)N1CCN(C(=O)C2CC2)CC1 [Olaparib] (partner 8 µM)
In short: as §1

[3] = compound: Nc1ccccc1NC(=O)c1ccc(CNC(=O)OCc2cccnc2)cc1 [Entinostat] + CS(=O)(=O)CCNCc1ccc(-c2ccc3ncnc(Nc4ccc(OCc5cccc(F)c5)c(Cl)c4)c3c2)o1 [Lapatinib] (partner 2 µM)
In short: as §1

[4] = compound: CN1CCC(CNc2ccc3ncc(-c4cccc(OC(F)(F)F)c4)n3n2)CC1 [SGI-1776] + CCNC(=O)c1noc(-c2cc(C(C)C)c(O)cc2O)c1-c1ccc(CN2CCOCC2)cc1 [Luminespib] (partner 0.01 µM)
In short: as §1

Row | Cell Line | relative viability ([1]; first compound 0.02 µM) | relative viability ([1]; first compound 0.06325 µM) | relative viability ([1]; first compound 0.2 µM) | relative viability ([1]; first compound 0.6325 µM) | relative viability ([1]; first compound 2 µM) | relative viability ([2]; first compound 0.08 µM) | relative viability ([2]; first compound 0.8 µM) | relative viability ([2]; first compound 2.53 µM) | relative viability ([2]; first compound 8 µM) | relative viability ([3]; first compound 0.02 µM) | relative viability ([3]; first compound 0.06325 µM) | relative viability ([3]; first compound 0.2 µM) | relative viability ([3]; first compound 0.6325 µM) | relative viability ([3]; first compound 2 µM) | relative viability ([4]; first compound 0.08 µM) | relative viability ([4]; first compound 0.8 µM) | relative viability ([4]; first compound 2.53 µM) | relative viability ([4]; first compound 8 µM)
1 | 201T | 0.82 | 0.692 | 0.777 | 0.401 | 0.406 | 0.856 | 0.893 | 0.854 | 0.9 | 1.02 | 1.03 | 0.959 | 0.937 | 0.665 | 1.04 | 1.09 | 1.05 | 1.03
2 | A549 | 0.27 | 0.251 | 0.205 | 0.177 | 0.0922 | 0.39 | 0.395 | 0.389 | 0.312 | 1 | 0.956 | 0.92 | 0.755 | 0.481 | – | – | – | –
3 | A-427 | 0.536 | 0.507 | 0.528 | 0.477 | 0.438 | 0.724 | 0.723 | 0.739 | 0.569 | 1.16 | 1.08 | 1.07 | 0.983 | 0.83 | 0.915 | 0.856 | 0.755 | 0.869
4 | ABC-1 | 1.04 | 1.41 | 1.1 | 0.91 | 0.626 | 0.78 | 0.874 | 0.5 | 0.842 | 1.43 | 1.38 | 1.56 | 1.38 | 1.21 | 0.308 | 0.577 | 0.52 | 0.51
5 | BEN | 0.774 | 0.956 | 0.657 | 0.447 | 0.345 | 1.01 | 1.15 | 1.07 | 0.966 | 0.894 | 0.743 | 0.562 | 0.373 | 0.219 | 0.434 | 0.39 | 1.1 | 0.475
6 | CAL-12T | – | – | – | – | – | 0.713 | 0.738 | 0.833 | 0.696 | 0.606 | 0.762 | 0.55 | 0.501 | 0.466 | 0.331 | 0.394 | 0.452 | 0.519
7 | COR-L23 | 0.402 | 0.413 | 0.356 | 0.217 | 0.141 | 0.345 | 0.396 | 0.377 | 0.275 | 0.967 | 0.995 | 0.905 | 0.579 | 0.176 | 0.702 | 0.68 | 0.743 | 0.511
8 | COR-L 105 | 0.64 | 0.641 | 0.595 | 0.466 | 0.337 | 0.775 | 0.726 | 0.77 | 0.631 | 0.362 | 0.357 | 0.358 | 0.328 | 0.34 | 0.741 | 0.713 | 0.691 | 0.834
9 | Calu-6 | – | – | – | – | – | 0.61 | 0.559 | 0.642 | 0.474 | 1.09 | 0.967 | 0.963 | 0.698 | 0.498 | – | – | – | –
10 | ChaGo-K-1 | 0.572 | 0.545 | 0.543 | 0.443 | 0.45 | 0.393 | 0.487 | 0.405 | 0.45 | – | – | – | – | – | 0.586 | 0.51 | 0.706 | 0.556
11 | EBC-1 | – | – | – | – | – | 0.74 | 0.732 | 0.687 | 0.573 | 0.213 | 0.211 | 0.208 | 0.181 | 0.184 | – | – | – | –
12 | EKVX | 0.307 | 0.351 | 0.281 | 0.207 | 0.244 | 0.827 | 0.906 | 0.875 | 0.737 | 0.254 | 0.219 | 0.209 | 0.161 | 0.153 | 0.868 | 0.937 | 0.875 | 0.863
13 | EMC-BAC-2 | 0.988 | 0.916 | 0.815 | 0.486 | 0.364 | 0.504 | 0.506 | 0.509 | 0.452 | 0.873 | 0.956 | 0.901 | 0.682 | 0.499 | 1.2 | 1.27 | 1.26 | 1.11
14 | EPLC-272H | 0.409 | 0.383 | 0.325 | 0.25 | 0.218 | 1.01 | 0.922 | 0.737 | 0.348 | 0.951 | 0.831 | 1.27 | 0.365 | 0.334 | 0.402 | 0.536 | 0.501 | 0.2
15 | H3255 | 0.58 | 0.556 | 0.493 | 0.268 | 0.218 | 0.563 | 0.595 | 0.646 | 0.529 | 0.21 | 0.309 | 0.161 | 0.145 | 0.156 | 0.988 | 1.1 | 0.894 | 0.665
16 | HARA | 0.602 | 0.521 | 0.557 | 0.456 | 0.276 | 1.09 | 0.986 | 0.667 | 0.57 | 0.792 | 0.872 | 0.786 | 0.671 | 0.374 | 0.862 | 0.67 | 0.67 | 0.0476
17 | HCC-15 | 0.622 | 0.508 | 0.46 | 0.261 | 0.151 | 0.717 | 0.759 | 0.755 | 0.687 | 0.866 | 0.779 | 0.726 | 0.345 | 0.288 | 0.353 | 0.34 | 0.325 | 0.186
18 | HCC-44 | 0.997 | 0.841 | 0.938 | 0.721 | 0.611 | 0.998 | 0.973 | 0.89 | 0.984 | 1 | 0.88 | 0.7 | 0.258 | 0.311 | 1.06 | 0.953 | 1.01 | 0.693
19 | HCC-78 | 0.823 | 0.726 | 0.595 | 0.594 | 0.371 | 0.891 | 0.91 | 0.801 | 0.95 | 0.829 | 0.702 | 0.33 | 0.169 | 0.169 | – | – | – | –
20 | HCC-366 | 0.312 | 0.315 | 0.168 | 0.155 | 0.0591 | 0.347 | 0.449 | 0.379 | 0.294 | 1.02 | 1.04 | 0.66 | 0.218 | 0.0452 | – | – | – | –
